Our source for the IC50 and viability, T/C values is PubChem BioAssay AID1963849 (Molecular Pharmacology Branch, DTP, NCI, 2024).

The subject of the assay is 299254-011-R-J1-PDC complex spheroid viability. Kind of assay: Anticancer human tumor 299254-011-R-J1-PDC patient-derived melanoma cell line growth inhibition [POLQ]. The note with it: for viability, T/C: stronger effect = lower value. The procedure, abridged: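 Three-cell-type spheroids modelling solid tumor plus stroma served as the readout system; POL inhibitors were tested individually and in combination, concentration ranges set by clinical Cmax where known.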

Where [1] appears, read: curve of first compound, second compound 0.0316 µM.
Setting [2] is: curve of first compound, second compound 0.1 µM.
[3] abbreviates: curve of first compound, second compound 0.316 µM.
[4] abbreviates: curve of first compound, second compound 1 µM.
The mark [5] stands for this setting: curve of first compound, second compound 3.16 µM.
[6] abbreviates: curve of first compound, second compound 10 µM.
Where [7] appears, read: second compound 0.0316 µM, first compound 0.00316 µM.
[8] abbreviates: second compound 0.0316 µM, first compound 0.01 µM.
The mark [9] stands for this setting: second compound 0.0316 µM, first compound 0.0316 µM.
Setting [10] is: second compound 0.0316 µM, first compound 0.1 µM.
[11] abbreviates: second compound 0.0316 µM, first compound 0.316 µM.
Setting [12] is: second compound 0.0316 µM, first compound 1 µM.
Setting [13] is: second compound 0.1 µM, first compound 0.00316 µM.
The mark [14] stands for this setting: second compound 0.1 µM, first compound 0.01 µM.
Where [15] appears, read: second compound 0.1 µM, first compound 0.0316 µM.
The mark [16] stands for this setting: second compound 0.1 µM, first compound 0.1 µM.
Where [17] appears, read: second compound 0.1 µM, first compound 0.316 µM.
[18] abbreviates: second compound 0.1 µM, first compound 1 µM.
The mark [19] stands for this setting: second compound 0.316 µM, first compound 0.00316 µM.
[20] abbreviates: second compound 0.316 µM, first compound 0.01 µM.
Where [21] appears, read: second compound 0.316 µM, first compound 0.0316 µM.
The mark [22] stands for this setting: second compound 0.316 µM, first compound 0.1 µM.
Where [23] appears, read: second compound 0.316 µM, first compound 0.316 µM.
[24] abbreviates: second compound 0.316 µM, first compound 1 µM.
Where [25] appears, read: second compound 1 µM, first compound 0.00316 µM.
The mark [26] stands for this setting: second compound 1 µM, first compound 0.01 µM.
The mark [27] stands for this setting: second compound 1 µM, first compound 0.0316 µM.
[28] abbreviates: second compound 1 µM, first compound 0.1 µM.
[29] abbreviates: second compound 1 µM, first compound 0.316 µM.
The mark [30] stands for this setting: second compound 1 µM, first compound 1 µM.
Setting [31] is: second compound 3.16 µM, first compound 0.00316 µM.
Setting [32] is: second compound 3.16 µM, first compound 0.01 µM.
Setting [33] is: second compound 3.16 µM, first compound 0.0316 µM.
[34] abbreviates: second compound 3.16 µM, first compound 0.1 µM.
The mark [35] stands for this setting: second compound 3.16 µM, first compound 0.316 µM.
[36] abbreviates: second compound 3.16 µM, first compound 1 µM.
The mark [37] stands for this setting: second compound 10 µM, first compound 0.00316 µM.
Setting [38] is: second compound 10 µM, first compound 0.01 µM.
Setting [39] is: second compound 10 µM, first compound 0.0316 µM.
The mark [40] stands for this setting: second compound 10 µM, first compound 0.1 µM.
Where [41] appears, read: second compound 10 µM, first compound 0.316 µM.
The mark [42] stands for this setting: second compound 10 µM, first compound 1 µM.

Values joined by “and” are separate entries in the source; they are usually repeats but may differ in a detail not shown here. Equal entries are not always repeated.
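Further: spheroids exposed to drugs for one week before measurement.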
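Wherever viability, T/C is given: percent viability relative to DMSO vehicle control taken as 100%.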

As to `CCc1c2c(nc3ccc(O)cc13)-c1cc3c(c(=O)n1C2)COC(=O)[C@]3(O)CC` + COC1C(OC(N)=O)C(O)C(Oc2ccc3c(O)c(NC(=O)c4ccc(O)c(CC=C(C)C)c4)c(=O)oc3c2C)OC1(C)C, the IC50 (usually the concentration needed to halve the response being measured) is, setting by setting: under setting [1], over 1 µM; under setting [2], over 1 µM; under setting [3], over 1 µM; under setting [4], over 1 µM; under setting [5], over 1 µM; under setting [6], over 1 µM. The viability, T/C (commonly the ratio of treated to control) by setting is: under setting [7], 109%; under setting [8], 77.5%; under setting [9], 69.4%; under setting [10], 65.4%; under setting [11], 70.4%; under setting [12], 48.9%. Besides, the viability, T/C under setting [13] was 114%; the viability, T/C under setting [14] is 91.8%; the viability, T/C under setting [15] is 64.3%; the viability, T/C under setting [16] is 64.5%; the viability, T/C under setting [17] is 66.3%; the viability, T/C under setting [18] is 57.8%. Also, the viability, T/C under setting [19] is 91.8%; the viability, T/C under setting [20] is 87.1%; the viability, T/C under setting [21] is 77.2%; the viability, T/C under setting [22] was 64.8%; the viability, T/C under setting [23] is 61.5%; the viability, T/C under setting [24] is 56.2%. The viability, T/C under setting [25] is 112%; the viability, T/C under setting [26] was 92.1%; the viability, T/C under setting [27] was 77.9%; the viability, T/C under setting [28] was 62.5%; the viability, T/C under setting [29] is 64%; the viability, T/C under setting [30] was 59.4%. In addition, the viability, T/C by setting is: under setting [31], 93.9%; under setting [32], 77.5%; under setting [33], 68.8%; under setting [34], 69.4%; under setting [35], 63%; under setting [36], 56.6%. The viability, T/C reads like this: under setting [37], 99.2%; under setting [38], 89.3%; under setting [39], 71.7%; under setting [40], 60.9%; under setting [41], 63.6%; under setting [42], 48.8%.

As to `Cn1ncnc1[C@H]1c2n[nH]c(=O)c3cc(F)cc(c23)N[C@@H]1c1ccc(F)cc1`, the viability, T/C (compound 0.000316 µM) is 107% and 92.2% and 97.5%; the viability, T/C (compound 0.001 µM) was 108% and 87.9% and 99%; the viability, T/C (compound 0.00316 µM) was 110% and 111% and 116%; the viability, T/C (compound 0.01 µM) is 124% and 107% and 98.2%; the viability, T/C (compound 0.0316 µM) is 128% and 92.6% and 95.2%; the viability, T/C (compound 0.1 µM) is 101% (2×) and 99.2%. Besides, the IC50 (curve of compound) was over 0.1 µM.

Turning to `CCc1cc2c(N3CCc4c(cc(Cn5ccnc5)cc4-c4cn(C)nc4C(F)(F)F)C3=O)ccnc2c(OC)n1`, the viability, T/C is 97% and 108% and 110% (compound 0.0316 µM); 105% and 116% and 102% (compound 0.1 µM); 96.3% and 113% and 109% (compound 0.316 µM); 93.1% and 100% and 93.5% (compound 1 µM); 98% and 90.8% and 98.3% (compound 3.16 µM); 84.2% and 82% and 82.5% (compound 10 µM). Also, the IC50 (curve of compound) is over 10 µM.

As to `O=c1[nH]cc(F)c(=O)[nH]1` + Cc1cccc(N(C)C(=O)C2C(O)CCN2c2nc(C)cc(C(F)(F)F)c2C#N)c1, the half-inhibitory concentration (IC50) reads like this: under setting [1], over 10 µM; under setting [2], over 10 µM; under setting [3], over 10 µM; under setting [4], over 10 µM; under setting [5], over 10 µM; under setting [6], over 10 µM. Also, the viability, T/C by setting is: under setting [9], 115%; under setting [10], 88%; under setting [11], 105%; under setting [12], 97.3%; (second compound 0.0316 µM, first compound 3.16 µM) 76.1%; (second compound 0.0316 µM, first compound 10 µM) 73%. In addition, the viability, T/C reads like this: under setting [15], 105%; under setting [16], 92.4%; under setting [17], 96%; under setting [18], 94.8%; (second compound 0.1 µM, first compound 3.16 µM) 88.1%; (second compound 0.1 µM, first compound 10 µM) 81.2%. The viability, T/C under setting [21] is 111%; the viability, T/C under setting [22] is 118%; the viability, T/C under setting [23] was 106%; the viability, T/C under setting [24] is 99.3%; the viability, T/C (second compound 0.316 µM, first compound 3.16 µM) is 98.9%; the viability, T/C (second compound 0.316 µM, first compound 10 µM) is 67.6%. Also, the viability, T/C by setting is: under setting [27], 112%; under setting [28], 99.7%; under setting [29], 98.2%; under setting [30], 92.3%; (second compound 1 µM, first compound 3.16 µM) 88%; (second compound 1 µM, first compound 10 µM) 68.1%. The viability, T/C was 114% under setting [33]; 103% under setting [34]; 89.1% under setting [35]; 114% under setting [36]; 90.3% (second compound 3.16 µM, first compound 3.16 µM); 65.2% (second compound 3.16 µM, first compound 10 µM). Besides, the viability, T/C under setting [39] was 103%; the viability, T/C under setting [40] was 98%; the viability, T/C under setting [41] was 93.4%; the viability, T/C under setting [42] is 87%; the viability, T/C (second compound 10 µM, first compound 3.16 µM) is 80.9%; the viability, T/C (second compound 10 µM, first compound 10 µM) is 69.3%.

With `COc1cccc(OCCCN)c1-c1cc(Nc2cnc(C#N)cn2)n[nH]1` + Cc1cccc(N(C)C(=O)C2C(O)CCN2c2nc(C)cc(C(F)(F)F)c2C#N)c1, the IC50 under setting [1] came to 0.188 µM; the IC50 under setting [2] turned out to be 0.136 µM; the IC50 under setting [3] came to 0.0954 µM; the IC50 under setting [4] was 0.207 µM; the IC50 under setting [5] is 0.105 µM; the IC50 under setting [6] was 0.112 µM. The viability, T/C by setting is: under setting [7], 99.2%; under setting [8], 108%; under setting [9], 71.2%; under setting [10], 64.1%; under setting [11], 39.6%; under setting [12], 42%. Besides, the viability, T/C is, setting by setting: under setting [13], 92.7%; under setting [14], 104%; under setting [15], 75.6%; under setting [16], 53.7%; under setting [17], 49%; under setting [18], 38.2%. The viability, T/C was 100% under setting [19]; 106% under setting [20]; 74.7% under setting [21]; 52% under setting [22]; 49.2% under setting [23]; 45.6% under setting [24]. Moreover, the viability, T/C runs as follows: under setting [25], 90.6%; under setting [26], 103%; under setting [27], 71.1%; under setting [28], 65.9%; under setting [29], 40.6%; under setting [30], 38.9%. For the same molecule, the viability, T/C runs as follows: under setting [31], 120%; under setting [32], 107%; under setting [33], 72.3%; under setting [34], 52.2%; under setting [35], 41%; under setting [36], 33.9%. In addition, the viability, T/C is 103% under setting [37]; 85.1% under setting [38]; 64.8% under setting [39]; 54.1% under setting [40]; 37.8% under setting [41]; 39.8% under setting [42].

`O=C(Nc1ccc(O)c(NS(=O)(=O)c2ccc(F)cc2)c1)c1ccc(-c2ccccc2)cc1`: the viability, T/C is 93.4% and 116% (2×) (compound 0.0316 µM); 99.8% and 93% and 108% (compound 0.1 µM); 110% and 99.2% and 96.8% (compound 0.316 µM); 91.6% and 92.6% and 111% (compound 1 µM); 111% and 88.9% and 86.7% (compound 3.16 µM); 52% and 54.8% and 46.6% (compound 10 µM). Under “curve of compound”, the IC50 was > 10 µM and 9.06 µM.

In the case of `C#Cc1c(F)ccc2cc(O)cc(-c3ncc4c(N5CC6CCC(C5)N6)nc(OCC56CCCN5CC(F)C6)nc4c3F)c12` (stereo not drawn), the viability, T/C was 90.8% and 94.2% and 98% (compound 0.0316 µM); 109% and 101% and 94.8% (compound 0.1 µM); 113% and 107% and 110% (compound 0.316 µM); 117% and 116% and 112% (compound 1 µM); 102% and 117% and 93.7% (compound 3.16 µM); 84.7% and 82.2% and 84.4% (compound 10 µM). Besides, the IC50 (curve of compound) was over 10 µM.

On to `C=CCn1c(=O)c2cnc(Nc3ccc(N4CCN(C)CC4)cc3)nc2n1-c1cccc(C(C)(C)O)n1`, for which the viability, T/C is 101% and 90.2% and 103% (compound 0.00316 µM); 98.3% and 97.1% and 94.1% (compound 0.01 µM); 106% and 114% and 110% (compound 0.0316 µM); 115% and 104% and 105% (compound 0.1 µM); 83.5% and 95.6% and 103% (compound 0.316 µM); 79.1% and 78.9% and 58.3% (compound 1 µM). Besides, the IC50 (curve of compound) is over 1 µM.

Turning to `Cc1cccc(N(C)C(=O)C2C(O)CCN2c2nc(C)cc(C(F)(F)F)c2C#N)c1` (stereo not drawn), the viability, T/C is 102% [middle of 13 runs] (compound 0.0316 µM); 103% [middle of 13 runs] (compound 0.1 µM); 102% [middle of 13 runs] (compound 0.316 µM); 103% [middle of 13 runs] (compound 1 µM); 97.3% [middle of 13 runs] (compound 3.16 µM). Also, the IC50 (compound alone, run of 11/27/2023) was over 10 µM and the IC50 (compound alone, run of 12/05/2023) is over 10 µM.
